Measured values published in PubChem BioAssay AID849 (SRMLSC, 2007).
Active and inactive are the calls of the source. How the calls were made is not given here.

These compounds were tested on Saccharomyces cerevisiae lifespan shortening, growth inhibition (assay: yeast lifespan shortening compounds, dose response (AID 849);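 further: yeast growth read as optical density after two days at 30 degrees C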).
Compound `CNC(=O)Oc1cccc(-c2cn3cc(OC(=O)NC)ccc3n2)c1` has an IC50 of 10.3 µM. `Oc1cc(-c2ccccc2)c2ccccc2c1` was tested, and the IC50 was 26 µM. For `Oc1c(Cl)cc(Cl)c(Cl)c1Cc1c(O)c(Cl)cc(Cl)c1Cl`, the IC50 was > 100 µM (inactive). `Cc1ccc(NC(=S)Nc2ccc(Cl)c(Cl)c2)c(OC(F)F)c1` showed an IC50 of 22.2 µM. For `S=C(NCc1ccc(Cl)cc1)NC12CC3CC(CC(C3)C1)C2`, the IC50 was > 100 µM (inactive). Work on `CCOC(=O)C(=NC(C)CC)NNc1ccc(Br)cc1` (centres undefined) yielded an IC50 of 8.41 µM. With `Cc1nc2c(F)c(F)c(C(F)(F)F)c(F)c2[nH]1` the IC50 was > 100 µM (inactive). `O=C(Cc1ccccc1)NCCc1cn2ccsc2n1` was tested, and the IC50 was > 100 µM (inactive). With `COc1ccc2cc(C(=O)O)ccc2c1` the IC50 was 13.9 µM. For `CNC(=S)N/N=C(\C)c1ccc(N2CCOCC2)cc1`, the IC50 was > 100 µM (inactive). For `Cc1ccc(C(=O)O/N=C/c2c(N3CCOCC3)n(C)c3ccccc23)cc1`, the IC50 was > 100 µM (inactive). In the case of `COc1ccc2c(c1)c1nnc(SC)nc1n2C`, the IC50 is reported as 44.1 µM. `CCN1/C(=C/C=C/C=C/c2sc3ccccc3[n+]2CC)Sc2ccccc21` gave an IC50 of 21.3 µM. For `Cc1cccc(-c2nnc3sc(-c4ccccc4C)nn23)c1`, the IC50 was > 100 µM (inactive). For `CC(C)C(=O)NC(c1ccccc1)c1cc([N+](=O)[O-])c2cccnc2c1O` (centres undefined), the IC50 was 14.2 µM. For `O=C(CCc1ccccc1)NNC(=S)NC(=O)c1ccccc1`, the IC50 was > 100 µM (inactive). In the case of `CN(c1ccc(O)cc1)c1nc(-c2ccccc2)cs1`, the IC50 is reported as > 100 µM (inactive). With `COc1ccccc1C(=O)NNC(=S)NC(=O)c1ccco1` the IC50 was > 100 µM (inactive). `O=C(CSCc1ccco1)Nc1cc(C(F)(F)F)ccc1N1CCOCC1` was tested, and the IC50 was > 100 µM (inactive). For `c1ccc2c(c1)nnn1c3ccccc3nc21`, the IC50 was > 100 µM (inactive). In the case of `CC(NC(=O)Nc1ccc(Cl)cc1)C(c1cccs1)N1CCOCC1` (centres undefined), the IC50 is reported as > 100 µM (inactive). `CCCCN=C(NNc1ccc(Br)cc1)C(=O)OCC` gave an IC50 of 5.3 µM. Work on `O=C(O)c1cc2c(ccc3ccccc32)oc1=O` yielded an IC50 of 11.9 µM. In the case of `c1ccc(-c2ccc(OCCCn3cncn3)cc2)cc1`, the IC50 is reported as > 100 µM (inactive). In the case of `COc1ccc(-c2cc(C(=O)N3CCN(c4ncccn4)CC3)c3ccccc3n2)c(OC)c1`, the IC50 is reported as 49.8 µM. With `c1ccc(N(c2ccccc2)c2nc(-n3ccnc3)nc(-n3ccnc3)n2)cc1` the IC50 was > 100 µM (inactive). For `Cc1nc2cc3ccccc3cc2c(=O)[nH]1`, the IC50 was > 100 µM (inactive). With `CCCn1c(C)cc(C(=O)COC(=O)c2ccc[nH]c2=O)c1C` the IC50 was 35.6 µM. `O=C(N/N=C\c1cccc([N+](=O)[O-])c1O)C1COc2ccccc2O1` (centres undefined) showed an IC50 of 24.8 µM. For `COc1ccc(-c2n[nH]c(C(F)(F)F)c2-c2cc3ccccc3o2)c(O)c1`, the IC50 was 26.1 µM. `Cc1ccc(N/N=C/c2c(O)cc(C)oc2=O)cc1` was tested, and the IC50 was 24.3 µM. In the case of `O=C(OCn1ncc(Br)c(Br)c1=O)c1ccccc1Cl`, the IC50 is reported as > 100 µM (inactive). For `Cc1cc(O)c(/C=N/Nc2ccccc2Cl)c(=O)o1`, the IC50 was 29.7 µM. Compound `O=[N+]([O-])c1ccc(N=Nc2ccc(O)cc2O)cc1` has an IC50 of 32 µM. For `CC1(CCc2ccccc2)NC(=S)N(c2ccc(Cl)cc2)N1` (centres undefined), the IC50 was 42 µM. `OCc1ccc(O)c2ncccc12` was tested, and the IC50 was 32.2 µM. Work on `O=C1C=C(c2ccc(Cl)cc2)C(=O)N1Nc1ccccc1` yielded an IC50 of 4.66 µM. In the case of `COc1cc2c(cc1OC)CN(C(=O)CSc1nnc3scc(-c4ccccc4)n13)CC2`, the IC50 is reported as > 100 µM (inactive). In the case of `CC(=O)O/N=C/c1c(N2CCOCC2)n(C)c2ccccc12`, the IC50 is reported as 12.4 µM. `O=C(OCn1ncc(Br)c(Br)c1=O)c1ccc(F)cc1` gave an IC50 of 6.92 µM. For `CC(=O)NC(c1cccs1)c1cc([N+](=O)[O-])c2cccnc2c1O` (centres undefined), the IC50 was > 100 µM (inactive). `Cc1ccc(-n2c(C)cc(C(=O)COC(=O)c3ccc[nH]c3=O)c2C)cc1C` was tested, and the IC50 was 3.98 µM. Compound `Cc1ccc(C(=O)OCn2ncc(Cl)c(Cl)c2=O)cc1` has an IC50 of 3.73 µM. `OC(CNCCC1C=Nc2ccccc21)Cn1c2ccc(Cl)cc2c2cc(Cl)ccc21` (centres undefined) was tested, and the IC50 was 20 µM. With `COc1ccc2[nH]c3c(Cl)ncnc3c2c1` the IC50 was 18.5 µM. In the case of `O=C(CSC1=NS(=O)(=O)c2ccccc21)Nc1ccccc1`, the IC50 is reported as > 100 µM (inactive). For `c1ccc2nc3ccccc3nc2c1`, the IC50 was 16.8 µM. Compound `C/C(=N\Nc1nc2c(s1)CCCC2)c1ccccc1` has an IC50 of 31.9 µM. `CC(Nc1ccc(Br)cn1)c1cc(Cl)ccc1O` (centres undefined) was tested, and the IC50 was > 100 µM (inactive). `CC1=C(C)/C(=N\OS(=O)(=O)c2ccc(C)cc2)C=CC1=O` was tested, and the IC50 was 12.5 µM. For `COc1ccccc1-n1c(=O)oc2ccc(Cl)cc2c1=O`, the IC50 was > 100 µM (inactive). With `O=C(/C=C/N1CCOCC1)c1ccc(-c2ccccc2)cc1` the IC50 was 11.5 µM. Compound `COc1cccc2sc(Nc3nc(-c4ccccn4)cs3)nc12` has an IC50 of 20.4 µM. In the case of `S=C1SCN(Cc2ccccn2)CN1Cc1ccco1`, the IC50 is reported as 21.3 µM. `c1ccc(-c2ccc(-c3ccccn3)nn2)nc1` gave an IC50 of 49.3 µM. `O=C(O)c1ccc(N(c2ccccc2)c2ccccc2)cc1` was tested, and the IC50 was > 100 µM (inactive). `Cc1cc(N2CCN(c3cccc(C)c3C)CC2)nc(-c2ccccc2)n1` was tested, and the IC50 was 35.4 µM. For `COc1cc(/C=N/N(C)c2ccccc2)cc(Cl)c1O`, the IC50 was > 100 µM (inactive). For `c1ccc(Cc2nnc3sc(-c4ccco4)nn23)cc1`, the IC50 was > 100 µM (inactive).
